*1 amine or outer side, *2 acyl side, *3 side chain or, on linkers, in order; H or OH if unused. Where a SMILES comes first, the peptide text is derived from it. Bridges are numbered along the chain shown (N, C = ends). [ ]: non-standard residue; d: D form. ξ: configuration not given here. ξαMeNle(6-ylidene) = CC(CCCC=[*:3])(N[*:1])C(=O)[*:2]; Phe(4-tBu) = CC(C)(C)c1ccc(C[C@H](N)C(=O)O)cc1; X1 = O=C(C1C[C@@H]2CCCC[C@@H]2N1[*:1])[*:2]; Phe(3-Br) = N[C@@H](Cc1cccc(Br)c1)C(=O)O; Phe(4-F) = N[C@@H](Cc1ccc(F)cc1)C(=O)O; tBuAla = CC(C)(C)C[C@H](N)C(=O)O; 2Thi = N[C@@H](Cc1cccs1)C(=O)O; Ile(3ξ) = CCC(C)[C@H](N)C(=O)O; AllylGly = C=CC[C@H](N)C(=O)O; Pen = CC(C)(S)[C@H](N)C(=O)O; Orn = NCCC[C@H](N)C(=O)O; Dab = NCC[C@H](N)C(=O)O; Dap = NC[C@H](N)C(=O)O
Tests used:
hNTS2 receptor = molecular target: T1, hNTS2 receptor (Homo sapiens, UniProt O95665); experiment: Competitive radioligand binding assay on the hNTS2 receptor; conditions: for IC50: displacement of 125I-[Tyr3]-NT, membranes of 1321N1 cells expressing hNTS2, read-out: IC50 NTS2 (converted); for Selectivity: ratio IC50 for NTS1 : IC50 for NTS2
T1 construct: membranes prepared from them
T1 sequence (O95665 whole entry): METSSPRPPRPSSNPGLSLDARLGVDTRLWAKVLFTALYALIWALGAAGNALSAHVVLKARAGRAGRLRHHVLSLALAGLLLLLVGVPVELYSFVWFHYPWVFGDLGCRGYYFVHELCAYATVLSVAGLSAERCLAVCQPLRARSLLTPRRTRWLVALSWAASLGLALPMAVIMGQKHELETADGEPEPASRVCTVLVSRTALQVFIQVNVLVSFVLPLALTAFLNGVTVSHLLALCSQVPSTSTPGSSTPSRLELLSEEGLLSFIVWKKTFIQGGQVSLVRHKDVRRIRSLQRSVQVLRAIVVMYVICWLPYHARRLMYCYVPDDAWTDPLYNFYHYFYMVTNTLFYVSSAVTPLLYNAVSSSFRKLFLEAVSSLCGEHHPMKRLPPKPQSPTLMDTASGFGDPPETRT
Experimental: (§1) CHO-K1 (Chinese Hamster Ovary) cells stably expressing hNTS1 and 1321N1 cells stably expressing hNTS2 (ES-690-C and ES-691-C from PerkinElmer, Montréal, Canada) were cultured respectively in Ham's F12 and in DMEM culture media. Culture media were supplemented with 10% FBS, 100 U/mL penicillin, 100 μg/mL streptomycin, 20 mM HEPES, and 0.4 mg/mL G418 at 37° C. in a humidified chamber at 5% CO2.
(§2) The cells expressing hNTS1 were frozen when they reached 80% confluency. They were scrapped off the dish with 10 mM Tris buffer, 1 mM EDTA, pH 7.5 and centrifuged at 15,000 g for 5 min at 4° C. The pellet was then re-suspended in 1 mL binding buffer. The cells expressing hNTS2 were also frozen when they reached 80% confluency. They were scraped off the dish with PBS, 0.5 mM EDTA, pH 7.5 and sonicated for 5 minutes (pulse 30 s/5 s off, amplitude 40%). They were ultracentrifuged at 100 000 g for 60 minutes at 4° C. The pellet was re-suspended in 1 mL freezing buffer (PBS, glycerol, 0.5 mM EDTA), sonicated for 1 minute (pulse 30 s/5 s off, amplitude 50%) and further diluted in binding buffer. Competitive radioligand binding experiments were performed by incubating 15 μg of cell membranes expressing the hNTS1 receptor with […] of ^125I-[Tyr^3]-NT (2200 Ci/mmol) or 50 μg of cell membranes expressing the hNTS2 receptor with […] of ^125I-[Tyr^3]-NT in binding buffer (50 mM Tris-HCl, pH 7.5, 0.2% BSA) in the presence of increasing concentrations of analogues ranging from 10^−11 to 10^−4 M for 60 min at 25° C. After incubation, the binding reaction mixture was transferred in PEI-coated 96-well filter plates (glass fiber filters GF/B, Millipore, Billerica, MA). Reaction was terminated by filtration, and plates were washed three times with 200 μL ice-cold binding buffer. Glass filters were then counted using a γ-counter (2470 Wizard2, PerkinElmer, Mississauga, Ontario, Canada). Non-specific binding was measured in the presence of 10^−5 M unlabeled NT (8-13) and represented less than 5% of total binding. IC50 values were determined from competition curves as the unlabeled ligand concentration inhibiting 50% of ^125I-[Tyr^3]-NT-specific binding.
(§3) Competitive radioligand binding data were plotted using the nonlinear regression One-site-Fit Log(IC50) and represented the mean±SEM of at least three independent experiments in triplicates.

hNTS1 receptor = molecular target: T2, hNTS1 receptor (Homo sapiens, UniProt P30989); experiment: Competitive radioligand binding assay on the hNTS1 receptor; conditions: displacement of 125I-[Tyr3]-NT, membranes of CHO-K1 cells expressing hNTS1; read-out: IC50 NTS1
T2 construct: membranes prepared from them
T2 sequence (P30989 whole entry): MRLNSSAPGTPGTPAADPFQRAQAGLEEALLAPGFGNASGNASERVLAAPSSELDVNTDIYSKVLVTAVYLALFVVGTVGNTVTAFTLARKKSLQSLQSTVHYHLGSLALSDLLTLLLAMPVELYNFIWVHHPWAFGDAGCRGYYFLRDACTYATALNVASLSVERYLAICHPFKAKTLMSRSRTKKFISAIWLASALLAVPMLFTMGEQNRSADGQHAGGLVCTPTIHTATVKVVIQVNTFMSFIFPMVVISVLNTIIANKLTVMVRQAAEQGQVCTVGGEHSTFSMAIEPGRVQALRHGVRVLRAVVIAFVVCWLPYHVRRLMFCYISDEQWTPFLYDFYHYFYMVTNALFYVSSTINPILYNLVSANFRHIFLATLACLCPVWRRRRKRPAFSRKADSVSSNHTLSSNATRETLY
Experimental: as §1, §2, §3

Row | IC50 (hNTS2 receptor) [nM] | Selectivity (hNTS2 receptor) | IC50 (hNTS1 receptor) [nM] | SMILES
1 | 40.2 | >2488 | > 100000 | CC(C)C[C@H](NC(=O)[C@H](Cc1ccc(C(C)(C)C)cc1)NC(=O)[C@@H]1CC=CC[C@H](N)C(=O)N[C@@H](CCCCN)C(=O)N[C@@H](CCCCN)C(=O)N1)C(=O)O [compound 110, c[G(All)KKG(All)]F(4-tbu)L] (H-[AllylGly]KK[AllylGly][Phe(4-tBu)]L-OH; staple 1-4)
2 | 28.4 | >3523 | > 100000 | CC(C)C[C@H](NC(=O)[C@H](Cc1cccc(Br)c1)NC(=O)[C@@H]1CC=CC[C@H](N)C(=O)N[C@@H](CCCCN)C(=O)N[C@@H](CCCCN)C(=O)N1)C(=O)O [compound 115, c[G(All)KKG(All)]F(3-bromo)L] (H-[AllylGly]KK[AllylGly][Phe(3-Br)]L-OH; staple 1-4)
3 | 13.9 | 7194 | > 100000 | NCCCC[C@@H]1NC(=O)CCC=CC[C@@H](C(=O)N[C@@H](Cc2ccc(O)cc2)C(=O)N[C@@H](CC2CCCC2)C(=O)O)NC(=O)[C@H](CCCCN)NC1=O [compound 129, c[pK(pentenoyl)KG(All)]Y A(cyclopentyl)]
4 | 204 | >490.9 | > 100000 | CC(C)C[C@H](NC(=O)[C@H](Cc1ccc(O)cc1)NC(=O)[C@@H]1CC=CC[C@H](N)C(=O)N[C@@H](CCCCN)C(=O)N[C@@H](CN)C(=O)N1)C(=O)O [compound 53, c[G(All)KDapG(All)]YL] (H-[AllylGly]K[Dap][AllylGly]YL-OH; staple 1-4)
5 | 33.3 | 3006 | > 100000 | CC(C)C[C@H](NC(=O)C1C[C@@H]2CCCC[C@@H]2N1C(=O)[C@@H]1CC=CC[C@H](N)C(=O)N[C@@H](CCCCN)C(=O)N[C@@H](CCCCN)C(=O)N1)C(=O)O (stereo partly drawn) [compound 166, c[G(All)KKG(All)p (octahydroindol)L] (H-[AllylGly]KK[AllylGly][X1]L-OH; staple 1-4)
6 | 90 | 1112 | > 100000 | CC(C)C[C@H](NC(=O)[C@H](Cc1cccs1)NC(=O)[C@@H]1CC=CC[C@H](N)C(=O)N[C@@H](CCCCN)C(=O)N[C@@H](CCCCN)C(=O)N1)C(=O)O [compound 159, c[G(All)KKG(All)]A(2-thienyl)L] (H-[AllylGly]KK[AllylGly][2Thi]L-OH; staple 1-4)
7 | 10200 | 10 | 100000 | CCC(C)[C@H](NC(=O)[C@H](Cc1ccc(O)cc1)NC(=O)[C@@H]1CC=CC[C@H](N)C(=O)N[C@@H](CCCCN)C(=O)N[C@@H](CCCCN)C(=O)N1)C(=O)O (stereo partly drawn) [compound 14, c[G(All)KKG(All)]YI] (H-[AllylGly]KK[AllylGly]Y[Ile(3ξ)]-OH; staple 1-4)
8 | 37.7 | 2653 | > 100000 | CC(C)C[C@H](NC(=O)[C@H](Cc1ccc(Br)cc1)NC(=O)C1(C)CCCC=CCCC(=O)N[C@@H](CCCCN)C(=O)N[C@@H](CCCCN)C(=O)N1)C(=O)O (stereo partly drawn) [compound 136, c[PentenoylKKG(alpha-Me-(4-pentenyl))]F(4-bromo)L]
9 | 453 | >220 | > 100000 | NCCCC[C@@H]1NC(=O)[C@H](CCCCN)NC(=O)[C@@H](N)CC=CC[C@@H](C(=O)N[C@@H](Cc2ccc(O)cc2)C(=O)N[C@@H](Cc2ccccc2)C(=O)O)NC1=O [compound 32, c[G(All)KKG(All)]YF] (H-[AllylGly]KK[AllylGly]YF-OH; staple 1-4)
10 | 2130 | >47 | > 100000 | CC(C)C[C@H](NC(=O)[C@H](Cc1ccc(O)cc1)NC(=O)[C@@H]1CC=CC[C@H](N)C(=O)N[C@@H](CCCCN)C(=O)NCC(=O)N1)C(=O)O [compound 59, c[G(All)KGG(All)]YL] (H-[AllylGly]KG[AllylGly]YL-OH; staple 1-4)
11 | 137 | >729 | > 100000 | CC(C)C[C@H](NC(=O)[C@H](Cc1ccc(O)cc1)NC(=O)[C@@H]1CC=CC[C@H](N)C(=O)N[C@@H](CCN)C(=O)N[C@@H](CCCCN)C(=O)N1)C(=O)O [compound 80, c[G(All)DabKG(All)]YL] (H-[AllylGly][Dab]K[AllylGly]YL-OH; staple 1-4)
12 | 318 | 315 | > 100000 | CC(C)C[C@H](NC(=O)[C@H](Cc1ccc(O)cc1)NC(=O)[C@H]1NC(=O)[C@H](CCCCN)NC(=O)[C@H](CCCCN)NC(=O)[C@@H](N)C(C)(C)SSC1(C)C)C(=O)O [compound 155, c[(Pen)KK(Pen)]YL] (H-[Pen]KK[Pen]YL-OH; disulfide 1-4)
13 | 77.5 | >1291 | > 100000 | CC(C)C[C@H](NC(=O)[C@H](Cc1ccc(O)cc1)NC(=O)[C@@H]1CC=CC[C@H](N)C(=O)N[C@@H](CCCN)C(=O)N[C@@H](CCCCN)C(=O)N1)C(=O)O [compound 79, c[G(All)OrnKG(All)]YL] (H-[AllylGly][Orn]K[AllylGly]YL-OH; staple 1-4)
14 | 889 | >111 | > 100000 | CC(C)C[C@H](NC(=O)[C@H](Cc1ccc(O)cc1)NC(=O)[C@@H]1CCC(=O)NCCCC[C@H](N)C(=O)N[C@@H](CCCCN)C(=O)N[C@@H](CCCCN)C(=O)N1)C(=O)O [compound 101, c[KKKE]YL] (H-KKKEYL-OH; lactam 1-4)
15 | 34.4 | >2907 | > 100000 | CC(C)C[C@H](NC(=O)[C@H](Cc1ccc(O)cc1)NC(=O)C1(C)CCCC=CCCCC(C)(N)C(=O)N[C@@H](CCCCN)C(=O)N[C@@H](CCCCN)C(=O)N1)C(=O)O (stereo partly drawn) [compound 93, c[G(alpha-Me-(4-Pentenyl))KKG*(alpha-Me(4-Pentenyl))]YL] (H-[ξαMeNle(6-ylidene)]KK[ξαMeNle(6-ylidene)]YL-OH; staple 1-4)
16 | 9.6 | 10428 | > 100000 | CC1(C(=O)N[C@@H](Cc2ccc(Br)cc2)C(=O)N[C@@H](CC2CCCC2)C(=O)O)CCCC=CCCC(=O)N[C@@H](CCCCN)C(=O)N[C@@H](CCCCN)C(=O)N1 (stereo partly drawn) [compound 137, c[K(Pentenoyl)KG(alpha-Me-(4-pentenyl))]F(4-bromo)A (cyclopentyl)]
17 | 95.6 | >1046 | > 100000 | CC(C)C[C@H](NC(=O)[C@H](Cc1ccc(F)cc1)NC(=O)[C@@H]1CC=CC[C@H](N)C(=O)N[C@@H](CCCCN)C(=O)N[C@@H](CCCCN)C(=O)N1)C(=O)O [compound 77, c[G(All)KKG(All)]F(4-fluoro)L] (H-[AllylGly]KK[AllylGly][Phe(4-F)]L-OH; staple 1-4)
18 | 1100 | 90.9 | > 100000 | CC(C)C[C@H](NC(=O)[C@H](CCCCN)NC(=O)[C@@H]1CC=CC[C@H](N)C(=O)N[C@@H](CCCCN)C(=O)N[C@@H](CCCCN)C(=O)N1)C(=O)O [compound 17, c[G(All)KKG(All)]KL] (H-[AllylGly]KK[AllylGly]KL-OH; staple 1-4)
19 | 1930 | >51.8 | > 100000 | CC(C)C[C@H](NC(=O)[C@H](Cc1ccc(O)cc1)NC(=O)[C@@H]1CC(=O)NCCC[C@H](N)C(=O)N[C@@H](CCCCN)C(=O)N[C@@H](CCCCN)C(=O)N1)C(=O)O [compound 96, c[OrnKKD]YL] (H-[Orn]KKDYL-OH; lactam 1-4)
20 | 44.4 | >2252 | > 100000 | CC(C)(C)C[C@H](NC(=O)[C@H](Cc1ccc(O)cc1)NC(=O)[C@@H]1CC=CC[C@H](N)C(=O)N[C@@H](CCCCN)C(=O)N[C@@H](CCCCN)C(=O)N1)C(=O)O [compound 49, c[G(All)KKG(All)]YNpg] (H-[AllylGly]KK[AllylGly]Y[tBuAla]-OH; staple 1-4)
21 | 94 | >1064 | > 100000 | CC(C)C[C@H](NC(=O)[C@H](Cc1ccc(O)cc1)NC(=O)[C@@H]1CCCC[C@H](N)C(=O)N[C@@H](CCCCN)C(=O)N[C@@H](CCCCN)C(=O)N1)C(=O)O [compound 47, Dihydro-c[G(All)KKG(All)]YL]

Source: patent US12358948B2, “Neurotensinergic agonists and methods of using same preventing or treating pain” (priority 2019, dated 2025)
